Results reported in patent US12077503B2, “Substituted cyclic amides and their use as herbicides” (FMC CORPORATION, priority 2015, dated 2024).

Experiments:
Assay type in all cases: in vivo
[1] = tested on: barnyardgrass (Echinochloa crus-galli); test: Test G Pre-Emergence Protocol; conditions: Echinochloa crus-galli, pre-emergence, 312 h, evaluated after 13 days; for pest or weed control at 15.625 g/ha: 15.625 g ai/ha, read-out: Barnyard grass damage rating (100=total damage to plant; 0=no damage to plant); for pest or weed control at 62.5 g/ha: 62.5 g ai/ha, 100=total damage to plant, 0=no damage to plant, read-out: plant damage rating, Barnyardgrass; for pest or weed control at 250 g/ha: 250 g ai/ha, read-out: Barnyardgrass damage rating (100=total damage to plant; 0=no damage to plant)
In short: (§1)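 Pre-emergence spray, 15.625/62.5/250 g/ha, vehicle acetone:water 50:50 + 0.5% Tween 20, applied 1 d after sowing. Glasshouse 24/16° C, 14 h light, 65% RH, watered twice daily. Visual damage rating at 13 d, 0–100 scale.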

[2] = tested on: corn (Zea mays); test: Test G Pre-Emergence Protocol; conditions: Zea mays, pre-emergence, 312 h, evaluated after 13 days; for plant injury at 15.625 g/ha: 15.625 g ai/ha; for plant injury at 15.625 g/ha / plant injury at 250 g/ha: read-out: Corn damage rating (100=total damage to plant; 0=no damage to plant); for plant injury at 62.5 g/ha: 62.5 g ai/ha, 100=total damage to plant, 0=no damage to plant, read-out: plant damage rating, Corn; for plant injury at 250 g/ha: 250 g ai/ha
In short: as §1

[3] = tested on: giant foxtail (Setaria faberi); test: Test G Pre-Emergence Protocol; conditions: Setaria faberi, pre-emergence, 312 h, evaluated after 13 days; for pest or weed control at 15.625 g/ha: 15.625 g ai/ha; for pest or weed control at 15.625 g/ha / pest or weed control at 250 g/ha: read-out: Foxtail, Giant damage rating (100=total damage to plant; 0=no damage to plant); for pest or weed control at 62.5 g/ha: 62.5 g ai/ha, 100=total damage to plant, 0=no damage to plant, read-out: plant damage rating, Foxtail, Giant; for pest or weed control at 250 g/ha: 250 g ai/ha
In short: as §1

[4] = tested on: ivy-leaved morning glory (Ipomoea hederacea); test: Test G Pre-Emergence Protocol; conditions: Ipomoea, pre-emergence, 312 h, evaluated after 13 days; for pest or weed control at 15.625 g/ha: 15.625 g ai/ha, read-out: Morning-glory, Ivy-leaved damage rating (100=total damage to plant; 0=no damage to plant); for pest or weed control at 62.5 g/ha: 62.5 g ai/ha, 100=total damage to plant, 0=no damage to plant, read-out: plant damage rating, Morningglory, Ivy-leaved; for pest or weed control at 250 g/ha: 250 g ai/ha, read-out: Morningglory, Ivy-leaved damage rating (100=total damage to plant; 0=no damage to plant)
In short: as §1

[5] = tested on: redroot pigweed (Amaranthus retroflexus); test: Test G Pre-Emergence Protocol; conditions: Amaranthus retroflexus, pre-emergence, 312 h, evaluated after 13 days; for pest or weed control at 15.625 g/ha: 15.625 g ai/ha; for pest or weed control at 15.625 g/ha / pest or weed control at 250 g/ha: read-out: Pigweed, Redroot damage rating (100=total damage to plant; 0=no damage to plant); for pest or weed control at 62.5 g/ha: 62.5 g ai/ha, 100=total damage to plant, 0=no damage to plant, read-out: plant damage rating, Pigweed, Redroot; for pest or weed control at 250 g/ha: 250 g ai/ha
In short: as §1

[6] = tested on: velvetleaf (Abutilon theophrasti); test: Test G Pre-Emergence Protocol; conditions: Abutilon theophrasti, pre-emergence, 312 h, evaluated after 13 days; for pest or weed control at 15.625 g/ha: 15.625 g ai/ha; for pest or weed control at 15.625 g/ha / pest or weed control at 250 g/ha: read-out: Velvetleaf damage rating (100=total damage to plant; 0=no damage to plant); for pest or weed control at 62.5 g/ha: 62.5 g ai/ha, 100=total damage to plant, 0=no damage to plant, read-out: plant damage rating, Velvetleaf; for pest or weed control at 250 g/ha: 250 g ai/ha
In short: as §1

[7] = tested on: barnyardgrass (Echinochloa crus-galli); test: Test G Post-Emergence Protocol; conditions: Echinochloa crus-galli, post-emergence, 312 h; for pest or weed control at 15.625 g/ha: 15.625 g ai/ha, evaluated after 13 days (100=total damage to plant; 0=no damage to plant), read-out: Barnyardgrass damage rating; for pest or weed control at 62.5 g/ha: 62.5 g ai/ha, read-out: Barnyardgrass damage rating (100=total damage to plant; 0=no damage to plant); for pest or weed control at 62.5 g/ha / pest or weed control at 250 g/ha: evaluated after 13 days; for pest or weed control at 250 g/ha: 250 g ai/ha, read-out: damage to plant, Barnyardgrass (100=total damage to plant; 0=no damage to plant)
In short: (§2)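 Pot-grown seedlings, 8 days old, raised in a glasshouse at 24/16 °C day/night with 14 h light and 65% humidity, were sprayed post-emergence with test compound in acetone/water (50:50) plus 0.5% Tween 20 at 15.625, 62.5 or 250 g/ha. Damage was scored visually 13 days later on a 0–100 scale (100 = total damage).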

[8] = tested on: corn (Zea mays); test: Test G Post-Emergence Protocol; conditions: Zea mays, post-emergence, 312 h; for plant injury at 15.625 g/ha: 15.625 g ai/ha, evaluated after 13 days (100=total damage to plant; 0=no damage to plant), read-out: Corn damage rating; for plant injury at 62.5 g/ha: 62.5 g ai/ha, read-out: Corn damage rating (100=total damage to plant; 0=no damage to plant); for plant injury at 62.5 g/ha / plant injury at 250 g/ha: evaluated after 13 days; for plant injury at 250 g/ha: 250 g ai/ha, read-out: damage to plant, Corn (100=total damage to plant; 0=no damage to plant)
In short: as §2

[9] = tested on: giant foxtail (Setaria faberi); test: Test G Post-Emergence Protocol; conditions: Setaria faberi, post-emergence, 312 h; for pest or weed control at 15.625 g/ha: 15.625 g ai/ha, evaluated after 13 days (100=total damage to plant; 0=no damage to plant), read-out: Foxtail, Giant damage rating; for pest or weed control at 62.5 g/ha: 62.5 g ai/ha, read-out: Foxtail, Giant damage rating (100=total damage to plant; 0=no damage to plant); for pest or weed control at 62.5 g/ha / pest or weed control at 250 g/ha: evaluated after 13 days; for pest or weed control at 250 g/ha: 250 g ai/ha, read-out: damage to plant, Foxtail, Giant (100=total damage to plant; 0=no damage to plant)
In short: as §2

[10] = tested on: ivy-leaved morning glory (Ipomoea hederacea); test: Test G Post-Emergence Protocol; conditions: Ipomoea, post-emergence, 312 h; for pest or weed control at 15.625 g/ha: 15.625 g ai/ha, evaluated after 13 days (100=total damage to plant; 0=no damage to plant), read-out: Morningglory, Ivy-leaved damage rating; for pest or weed control at 62.5 g/ha: 62.5 g ai/ha, read-out: Morningglory, Ivy-leaved damage rating (100=total damage to plant; 0=no damage to plant); for pest or weed control at 62.5 g/ha / pest or weed control at 250 g/ha: evaluated after 13 days; for pest or weed control at 250 g/ha: 250 g ai/ha, read-out: damage to plant, Morningglory, Ivy-leaved (100=total damage to plant; 0=no damage to plant)
In short: as §2

[11] = tested on: redroot pigweed (Amaranthus retroflexus); test: Test G Post-Emergence Protocol; conditions: Amaranthus retroflexus, post-emergence, 312 h; for pest or weed control at 15.625 g/ha: 15.625 g ai/ha, evaluated after 13 days (100=total damage to plant; 0=no damage to plant), read-out: Pigweed, Redroot damage rating; for pest or weed control at 62.5 g/ha: 62.5 g ai/ha, read-out: Pigweed, Redroot damage rating (100=total damage to plant; 0=no damage to plant); for pest or weed control at 62.5 g/ha / pest or weed control at 250 g/ha: evaluated after 13 days; for pest or weed control at 250 g/ha: 250 g ai/ha, read-out: damage to plant, Pigweed, Redroot (100=total damage to plant; 0=no damage to plant)
In short: as §2

[12] = tested on: velvetleaf (Abutilon theophrasti); test: Test G Post-Emergence Protocol; conditions: Abutilon theophrasti, post-emergence, 312 h; for pest or weed control at 15.625 g/ha: 15.625 g ai/ha, evaluated after 13 days (100=total damage to plant; 0=no damage to plant), read-out: Velvetleaf damage rating; for pest or weed control at 62.5 g/ha: 62.5 g ai/ha, read-out: Velvetleaf damage rating (100=total damage to plant; 0=no damage to plant); for pest or weed control at 62.5 g/ha / pest or weed control at 250 g/ha: evaluated after 13 days; for pest or weed control at 250 g/ha: 250 g ai/ha, read-out: damage to plant, Velvetleaf (100=total damage to plant; 0=no damage to plant)
In short: as §2

CN1C[C@@H](c2ccc(NS(C)(=O)=O)cc2)[C@H](C(=O)Nc2ccccc2F)C1=O (racemic) [Compound 1416]
pest or weed control at 15.625 g/ha [1]: 0% | pest or weed control at 62.5 g/ha [1]: 0% | pest or weed control at 250 g/ha [1]: 0% | plant injury at 15.625 g/ha [2]: 0% | plant injury at 62.5 g/ha [2]: 0% | plant injury at 250 g/ha [2]: 0% | pest or weed control at 15.625 g/ha [3]: 0% | pest or weed control at 62.5 g/ha [3]: 0% | pest or weed control at 250 g/ha [3]: 0% | pest or weed control at 15.625 g/ha [4]: 0% | pest or weed control at 62.5 g/ha [4]: 0% | pest or weed control at 250 g/ha [4]: 0% | pest or weed control at 15.625 g/ha [5]: 0% | pest or weed control at 62.5 g/ha [5]: 0% | pest or weed control at 250 g/ha [5]: 0% | pest or weed control at 15.625 g/ha [6]: 0% | pest or weed control at 62.5 g/ha [6]: 0% | pest or weed control at 250 g/ha [6]: 0% | pest or weed control at 15.625 g/ha [7]: 0% | pest or weed control at 62.5 g/ha [7]: 0% | pest or weed control at 250 g/ha [7]: 0% | plant injury at 15.625 g/ha [8]: 0% | plant injury at 62.5 g/ha [8]: 0% | plant injury at 250 g/ha [8]: 0% | pest or weed control at 15.625 g/ha [9]: 0% | pest or weed control at 62.5 g/ha [9]: 0% | pest or weed control at 250 g/ha [9]: 0% | pest or weed control at 15.625 g/ha [10]: 0% | pest or weed control at 62.5 g/ha [10]: 0% | pest or weed control at 250 g/ha [10]: 0% | pest or weed control at 15.625 g/ha [11]: 0% | pest or weed control at 62.5 g/ha [11]: 0% | pest or weed control at 250 g/ha [11]: 0% | pest or weed control at 15.625 g/ha [12]: 0% | pest or weed control at 62.5 g/ha [12]: 0% | pest or weed control at 250 g/ha [12]: 0%

CN1C[C@@H](c2ccc(C(F)(F)F)nc2)[C@H](C(=O)Nc2ccccc2F)C1=O (racemic) [Compound 1419]
pest or weed control at 15.625 g/ha [1]: 10% | pest or weed control at 62.5 g/ha [1]: 80% | pest or weed control at 250 g/ha [1]: 90% | plant injury at 15.625 g/ha [2]: 0% | plant injury at 62.5 g/ha [2]: 0% | plant injury at 250 g/ha [2]: 50% | pest or weed control at 15.625 g/ha [3]: 10% | pest or weed control at 62.5 g/ha [3]: 80% | pest or weed control at 250 g/ha [3]: 90% | pest or weed control at 15.625 g/ha [4]: 0% | pest or weed control at 62.5 g/ha [4]: 0% | pest or weed control at 250 g/ha [4]: 60% | pest or weed control at 15.625 g/ha [5]: 0% | pest or weed control at 62.5 g/ha [5]: 0% | pest or weed control at 250 g/ha [5]: 70% | pest or weed control at 15.625 g/ha [6]: 0% | pest or weed control at 62.5 g/ha [6]: 0% | pest or weed control at 250 g/ha [6]: 0% | pest or weed control at 15.625 g/ha [7]: 30% | pest or weed control at 62.5 g/ha [7]: 50% | pest or weed control at 250 g/ha [7]: 60% | plant injury at 15.625 g/ha [8]: 10% | plant injury at 62.5 g/ha [8]: 10% | plant injury at 250 g/ha [8]: 20% | pest or weed control at 15.625 g/ha [9]: 10% | pest or weed control at 62.5 g/ha [9]: 60% | pest or weed control at 250 g/ha [9]: 70% | pest or weed control at 15.625 g/ha [10]: 0% | pest or weed control at 62.5 g/ha [10]: 20% | pest or weed control at 250 g/ha [10]: 10% | pest or weed control at 15.625 g/ha [11]: 10% | pest or weed control at 62.5 g/ha [11]: 20% | pest or weed control at 250 g/ha [11]: 30% | pest or weed control at 15.625 g/ha [12]: 10% | pest or weed control at 62.5 g/ha [12]: 10% | pest or weed control at 250 g/ha [12]: 0%
